Experimental data: patent publication US20030157541A1, “Regulation of human CycLT2-like GPCR protein” (Bayer Aktiengesellschaft, priority 2000, published 2003)

Target: T1, CysLT2 (Homo sapiens, UniProt Q9NS75)
T1 construct: expressed in transfected cells; membranes used
T1 sequence (Q9NS75 1-346): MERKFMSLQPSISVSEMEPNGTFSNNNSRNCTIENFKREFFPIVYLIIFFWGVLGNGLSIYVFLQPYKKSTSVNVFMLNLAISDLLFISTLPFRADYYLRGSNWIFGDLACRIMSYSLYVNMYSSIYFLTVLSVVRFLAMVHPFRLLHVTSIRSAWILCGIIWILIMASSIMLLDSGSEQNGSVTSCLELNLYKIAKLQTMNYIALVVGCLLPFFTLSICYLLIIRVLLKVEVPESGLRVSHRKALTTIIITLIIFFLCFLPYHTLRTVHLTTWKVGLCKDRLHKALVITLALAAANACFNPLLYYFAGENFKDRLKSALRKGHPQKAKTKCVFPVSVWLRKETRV
Assay: Competition for [^3H]LTD4-specific binding to CysLT2 membranes
Method: Membrane preparation for CysLT2 receptor binding assay. Peak stable cells transformed with CysLT2 expression vector were maintained in D-MEM supplemented with 10% FCS and 2 μg/ml of puromycin. Cells were collected and kept at −80° C. until membrane preparation. Frozen cells were suspended in cold membrane preparation buffer (50 mM Tris-HCl pH 7.5, protease inhibitor mixture(#1873580, Roche)), and disrupted with Polytron (Cat.#PT10-35, Kinematica AG, Switzerland). Disrupted cells were centrifuged at 500×g for 5 minutes at 4° C. to remove the nuclear fraction, and supernatants were applied to high speed centrifugation (45,000×g, 15 minutes, 4° C.) to precipitate membrane fraction. After the supernatant was removed, membrane preparation buffer were added to the pellet and homogenized gently on ice. Glycerol (final conc.;10%) and bovine serum albumin (final conc.:0.5%, Cat#A-3059, Sigma) were added to the membrane suspension as stabilizer. Membrane suspension was then divided into small vials and frozen in liquid nitrogen. After 1 hour freezing, vials were kept at −80° C. until use.
At the end of the binding reaction, 100 μl of the reaction mixture was transferred to a 96-well filtration plate (Cat.#MAFB-N0B, Millipore), and washed 3 times with 200 μl/well of cold binding buffer. […] The specific binding (total binding—non-specific binding) was measured by liquid scintillation counter (TopCount™, Packard) and expressed as the relative binding (%) in the figure.
Inhibition assay using several antagonists.

SMILES | IC50 | inhibition of [^3H]LTD4 binding to CysLT2 (at concentrations up to 10^−6 M, 0.4 nM [^3H]-labeled LTD4)
O=C(O)CCCNC(=O)c1cc(C(=O)O)ccc1OCCCc1ccc(OCCCCOc2ccccc2)cc1 [Bay y8934] | 1000 nM | –
CCOC(=O)c1cn(-c2ccc(C3=CC(F)(F)C3(F)F)cc2)c2cc(F)c(F)cc2c1=O [Bay y9773] | 2000 nM | –
CCCCC/C=C\C[C@@H](O)/C=C/C=C/C=C\[C@@H](O)CCCC(=O)O [LTB4, Leukotriene B4] | – | did not inhibit
